Literature values in paper PMC5950987 (Journal of Diabetes Science and Technology, 2017).

Details: administered by needle and syringe

## regular human insulin
  Intraindividual variability of the metabolic effect: 10-30%
